Values belong to the compound of their own block, whether it stands above or below them.
Legend:
[1] = tested on: mouse sensory neurons activated by mix of GPCR agonists (histamine, serotonin, bradykinin); test: Calcium flux in sensory neurons activated by mix of GPCR agonists; format: cell-based; conditions: serotonin 10 μM each, pretreatment with increasing amounts of compound
Procedure: (§1) FIG. 4: C12-Asn-GABA inhibits neuronal activation via the GABA B receptor. Amplitude of intracellular calcium mobilization (ΔF/F; right panel) in mouse sensory neurons and percentage of responding neurons (left panel) pretreated with increasing amounts of C12-Asn-GABA (black circle) or vehicle (HBSS; white circle) and treated with capsaicin (125 nM; A) or a mix of G protein coupled receptor agonists (histamine, serotonin and bradykinin 10 μM each; B). Data are represented as mean±SEM; n=4 independent experiments of 3 wells per condition and 30-80 neurons per well. […] Percentage of responding neurons pretreated with increasing amounts of saclofen (black circle) or vehicle (HBSS; white circle) and treated with C12-Asn-GABA (10 μM) and capsaicin (125 nM; C) or a mix of G protein coupled receptor agonist (histamine, serotonin and bradykinin 10 μM each; D). Data are represented as mean±SEM; n=4 independent experiments of 3 wells per condition and 30-80 neurons per well.
Male C57B16 mice (6-8 weeks) were used to produce primary cultures of dorsal root ganglia (DRG) sensory neurons for calcium flux experiments, and to perform studies of colorectal distention and intestinal isotonic contraction. All procedures were approved by Institutional Animal Care Committees (CEEA 122). […]

[2] = tested on: mouse sensory neurons activated by capsaicin; test: Calcium flux in sensory neurons activated by capsaicin (TRPV1 agonist); format: cell-based
Procedure: as §1
FIG. 7: C14-Asn-GABA inhibits neuronal activation by capsaicin. Amplitude of intracellular calcium mobilization (F/F; A) in mouse sensory neurons and percentage of responding neurons (B) pretreated with 10 μM of C14-Asn-GABA (black bar) or vehicle (HBSS; white bar) and treated with capsaicin (125 nM). Data are represented as mean±SEM; n=3 independent experiments of 3 wells per condition and 35-82 neurons per well.
(§2) Male C57B16 mice (6-8 weeks) were used to produce primary cultures of dorsal root ganglia (DRG) sensory neurons for calcium flux experiments, and to perform studies of colorectal distention and intestinal isotonic contraction. All procedures were approved by Institutional Animal Care Committees (CEEA 122).
To determine whether C12-Asn-GABA or C12-Asn-BABA is capable of signaling to sensory nerves, calcium mobilization studies were performed on primary cultures of mouse dorsal root ganglia (DRG) neurons. […]

[3] = tested on: mouse dorsal root ganglia (DRG) neurons; test: Calcium mobilization in primary DRG sensory neurons, basal (unstimulated); format: cell-based; conditions: 10 μM
Procedure: as §2
To determine whether C12-Asn-GABA or C12-Asn-BABA is capable of signaling to sensory nerves, calcium mobilization studies were performed on primary cultures of mouse dorsal root ganglia (DRG) neurons. […] The same experiments were thereafter performed in neurons activated by either an agonist of the receptor calcium channel TRPV1 (capsaicin) or by a mix of agonists (histamine, serotonin and bradykinin) for G protein coupled receptors (GPCR) implicated in visceral hypersensitivity. Exposure of neurons to either capsaicin (125 nM) or the mix of GPCR agonists (histamine, bradykinin, serotonin, 10 μM each) induced an increase in calcium flux as shown by the higher % of responding neurons and amplitude of the response (ΔF/F) compared to the vehicle (FIG. 4A, 4B). […] To investigate whether the inhibitory effect of C12-Asn-GABA was associated to the GABA residue, neurons were treated with saclofen (10, 50, and 100 μM), a competitive antagonist of the GABAB receptor. […]

[4] = tested on: capsaicin-induced visceral hypersensitivity; test: Capsaicin-induced visceral hypersensitivity, visceromotor response to colorectal distension; format: in vivo, mouse; conditions: oral 25 mg/kg, 4 hours before intracolonic capsaicin 100 μg/mouse
Procedure: FIG. 6: C12-Asn-GABA inhibits capsaicin-induced visceral hypersensitivity without altering Intestinal contraction. Mice received intracolonic administration of C12-Asn-GABA (10 μM; black symbols) or vehicle (40% ethanol; white symbols) and 30 minutes or 4 hours later colon (A) and blood (B) were harvested in order to quantify C12-Asn-GABA by LC-MS/MS. Data are expressed as mean±SEM, n=8 mice per group. […] Mice received intracolonic administration of C12-Asn-GABA (10 μM; black symbols) or vehicle (40% ethanol; white symbols) and 30 minutes or 4 hours later an intracolonic administration of capsaicin (100 μg/mouse; square) or its vehicle (40% ethanol; circle). Fifteen minutes after capsaicin or vehicle treatment, visceromotor response (VMR) to increasing pressures of colorectal distension was performed. Data are expressed as mean±SEM, n=7-8 mice per group. […] Ex vivo measurement of duodenal mechanical contraction frequency (B) and amplitude (C) in response to Krebs-Ringer solution (control; white bar), to DMSO 0.2% (vehicle; gray bar) or to C12-Asn-GABA (10 μM; black bar). Data are expressed as mean±SEM, n=5-6 per group. Statistical analysis was performed using Kruskal-Wallis analysis of variance and subsequent Dunn's post hoc test.
FIG. 8: Trimebutine maleate has no effect on capsaicin-induced visceral hypersensitivity. Mice received an oral treatment with vehicle (PEG200, white circle) or with trimebutine maleate (25 mg/kg, black circle) and 4 hours later an intracolonic administration of capsaicin (100 μg/mouse; black and white circle). Fifteen minutes after capsaicin, visceromotor response (VMR) to increasing pressures of colorectal distension was performed. Data are expressed as mean±SEM, n=7-8 mice per group. […]
In a first set of experiment, we assessed the ability of the C12-Asn-GABA to cross the epithelial barrier, in vivo. […] The impact of C12-Asn-GABA on visceral hypersensitivity was assessed by measuring the visceromotor responses (VMR) to colorectal distension (CRD). […]

Caco-2 cells = test: Absorption across Caco-2 monolayer in transwell chambers; format: in vitro ADME, human; conditions: 800 ng apical, 24 h, LC-HRMS
Procedure: FIG. 5: C12-Asn-GABA crosses the epithelial barrier without modifying epithelial cells physiology. Caco-2 cells were cultivated into transwell chambers. After treatment with C12-Asn-GABA (800 ng) at the apical side, C12-Asn-GABA was quantified inside the cells and both the apical and basolateral compartments by LC-MS/MS (A); data are represented as mean±SEM, n=3 experiments of 3 wells per condition. Extracted ion chromatogram at the exact mass of GABA (104.0702 m/z) with a mass accuracy of 5 ppm of the GABA commercial standard (GABA (Std.) and apical and basolateral compartments after loading or not Caco-2 cells with 800 ng of GABA at the apical site (B); representation of one well, n=3 experiments of 3 wells per condition. Paracellular permeability assessed by the passage of FITC-dextran loaded at the apical side (C) and CXCL8 secretion assessed by ELISA (D) were monitored after treatment of Caco-2 cells at the apical side with C12-Asn-GABA (10 μM); data are represented as mean±SEM, n=3 experiments of 3 wells per condition. […]
Caco-2 cells were grown in Glutamax DMEM (Gibco, Invitrogen life technologies, Paisley, UK) supplemented with 10% heat-inactivated fetal bovine serum (FBS) (Gibco, Invitrogen life technologies, Paisley, UK), 1% nonessential amino acids and 1% antibiotics (100 U/ml penicillin and […] streptomycin (Gibco, Invitrogen life technologies, Grand Island, N.Y., USA) at 37° C. in a 5% C02 water-saturated atmosphere. Cells were seeded on Transwell inserts (Costar, Sigma-Aldrich, Saint-Quentin Fallavier, France) and absorption studies of C12-Asn-GABA and GABA were performed 16 days later. These compounds were quantified by LC-MS/MS in both apical and basolateral chambers as well as in cells. The effect of C12-Asn-GABA (1-100 μM) on paracellular permeability was also measured by mucosal-to-serosal flux of 4 kDa Fluorescein Isothiocyanate (FITC)-labelled dextran as previously described^31. […]
The initial barrier for any drug absorption is the intestinal epithelial cell wall. […] The transport of GABA alone across the cell monolayer was also assessed. […]

Compound: CCCCCCCCCCCC(=O)N[C@@H](CC(N)=O)C(=O)NC(C)CC(=O)O (stereo partly drawn) [C12-Asn-BABA, C12-Asn-β-aminobutyric]
- calcium flux increase induced by mix of GPCR agonists (% responding neurons, amplitude ΔF/F) [1]: had no effect
- calcium flux increase induced by capsaicin (% responding neurons, amplitude ΔF/F) ([2]; capsaicin 125 nM, pretreatment with increasing amounts of compound): had no effect
- calcium mobilization under basal (unstimulated) conditions [3]: None of the isomers (10 μM) induced calcium mobilization

Compound: CCCCCCCCCCCCCC(=O)NC(CC(N)=O)C(=O)NCCCC(=O)O (stereo not drawn) [C14-Asn-GABA]
- calcium flux increase induced by capsaicin (amplitude, % responding neurons) ([2]; 10 μM, pre-treated 5 minutes before capsaicin 125 nM): prevented by C14-Asn-GABA pretreatment

Compound: trimebutine maleate [reference compound]
- hypersensitivity induced by capsaicin (VMR to CRD) [4]: has no effect

- presence in the basal chamber (Caco-2 cells): not detected
Compound: NCCCC(=O)O [GABA, gamma-Aminobutyric acid, reference compound]

— patent publication US11912645B2, “Lipopeptide compounds for the treatment of pain disorders” (INSERM (Institut National de la Santé et de la Recherche …, priority 2017, dated 2024)
